Laboratory results published in patent publication US20240083853A1, “HSD17B13 INHIBITORS AND USES THEREOF” (FL2022-001, Inc., priority 2020, published 2024).

Molecular target: T1, Recombinant human HSD17B13 enzyme (Homo sapiens, UniProt Q7Z5P4)
T1 sequence (Q7Z5P4 20-300): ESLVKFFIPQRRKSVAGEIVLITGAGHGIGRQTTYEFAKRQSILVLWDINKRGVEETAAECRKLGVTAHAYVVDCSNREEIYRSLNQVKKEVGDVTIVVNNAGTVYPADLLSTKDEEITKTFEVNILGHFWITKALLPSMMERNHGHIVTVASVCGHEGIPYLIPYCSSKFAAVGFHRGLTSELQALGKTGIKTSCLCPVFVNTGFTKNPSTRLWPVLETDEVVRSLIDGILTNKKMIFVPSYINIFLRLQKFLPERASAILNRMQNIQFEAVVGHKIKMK
Experiment: HSD17b13 NAD(P)H-Glo biochemical assay
Details: 50 uM estradiol, 1 mM NAD+, NAD(P)H-Glo luminescence; read-out: HSD17β13 IC50
Experimental: Example B-1: HSD17b13 NAD(P)H-Glo Biochemical Assay
Recombinant human HSD17B13 enzyme. Substrate: estradiol (Sigma β-Estradiol E8875), 100 mM in DMSO. Cofactor: NAD+ Grade I free acid (Sigma 10127965001), 20 mM in H2O. Assay buffer final concentration: 20 mM Tris pH7.4 with 0.002% Tween-20 and 0.02% BSA. Assay performed in 384 well solid bottom plate (Corning 3570). Enzymatic activity detected by NAD(P)H-Glo™ Detection System (Promega G9062).
Inhibitor compounds were serially diluted in DMSO and then further diluted in assay buffer to a 10× concentration consisting of 1% DMSO.
HSD17b13 enzyme was diluted in 1× assay buffer to the desired enzyme concentration based on the specific activity of the enzyme lot. 20 uL of diluted enzyme was added to each well along with 2.5 uL of 10× inhibitor solution. Assay plate was incubated at RT for 20 minutes, and then 2.5 uL of a 10× substrate/cofactor mix was added to each well for a final concentration of 50 uM estradiol and 1 mM NAD+. Assay plate was incubated at 37° C. for 3 hours. NAD(P)H-Glo™ Detection System reagents were prepared according to manufacturer's specifications, and 25 uL was added to each well. After incubating for 1 hour at RT, luminescence was measured.

IC50 [nM] | Compound
< 100 | C[C@H]1CN(c2ccc(-n3ncc4cc(F)c(O)c(F)c43)cc2)C[C@H](C)O1 (relative stereo) [Compound 20, 1-(4-(trans-2,6-Dimethylmorpholino)phenyl)-5,7-difluoro-1H-indazol-6-ol]
< 100 | C[C@H]1CN(c2ccc(-n3ncc4cc(F)c(O)c(F)c43)cc2)C[C@H](C)S1 (relative stereo) [Compound 32.5, 1-(4-(trans-2,6-Dimethylthiomorpholino)phenyl)-5,7-difluoro-1H-indazol-6-ol]
100 to 1000 | Oc1ccc(-c2ccc(-n3ncc4ccc(O)cc43)cc2)cc1 [Compound 1, 1-(4′-Hydroxy-[1,1′-biphenyl]-4-yl)-1H-indazol-6-ol]
100 to 1000 | Oc1cccc(-c2ccc(-n3ncc4cc(F)c(O)cc43)cc2)c1 [Compound 2, 5-Fluoro-1-(3′-hydroxy-[1,1′-biphenyl]-4-yl)-1H-indazol-6-ol]
100 to 1000 | Oc1ccc(-c2ccc(-n3ncc4cc(F)c(O)cc43)cc2)cc1 [Compound 2.1, 5-Fluoro-1-(4′-hydroxy-[1,1′-biphenyl]-4-yl)-1H-indazol-6-ol]
100 to 1000 | Oc1cc2c(cnn2-c2ccc(-c3ccccc3)cc2)cc1F [Compound 2.2, 1-([1,1′-Biphenyl]-4-yl)-5-fluoro-1H-indazol-6-ol]
100 to 1000 | Oc1cc2c(cnn2-c2ccc(Oc3ccccc3)cc2)cc1F [Compound 2.3, 5-Fluoro-1-(4-phenoxyphenyl)-1H-indazol-6-o1]
100 to 1000 | Oc1ccc(-c2ccc(-n3ncc4ccc(O)c(F)c43)cc2)cc1 [Compound 2.4, 7-Fluoro-1-(4′-hydroxy-[1,1′-biphenyl]-4-yl)-1H-indazol-6-ol]
100 to 1000 | Oc1ccc(-c2ccc(-n3ncc4cc(Cl)c(O)cc43)cc2)cc1 [Compound 2.5, 5-Chloro-1-(4′-hydroxy-[1,1′-biphenyl]-4-yl)-1H-indazol-6-ol]
1000 to 30000 | Oc1cccc(-c2ccc(-n3ncc4cc(Cl)c(O)cc43)cc2)c1 [Compound 2.6, 5-Chloro-1-(3′-hydroxy-[1,1′-biphenyl]-4-yl)-1H-indazol-6-ol]
100 to 1000 | Oc1ccc(-c2ccc(-n3ncc4c(F)cc(O)cc43)cc2)cc1 [Compound 2.7, 4-Fluoro-1-(4′-hydroxy-[1,1′-biphenyl]-4-yl)-1H-indazol-6-ol]
1000 to 30000 | Oc1cccc(-c2ccc(-n3ncc4c(F)cc(O)cc43)cc2)c1 [Compound 2.8, 4-Fluoro-1-(3′-hydroxy-[1,1′-biphenyl]-4-yl)-1H-indazol-6-ol]
1000 to 30000 | Oc1cc(F)c2cnn(-c3ccc(-c4cccc(O)c4Br)cc3)c2c1 [Compound 2.9, 1-(2′-Bromo-3′-hydroxy-[1,1′-biphenyl]-4-yl)-4-fluoro-1H-indazol-6-ol]
100 to 1000 | Oc1cc2c(cnn2-c2ccc(Nc3ccccc3)cc2)cc1F [Compound 3, 5-Fluoro-1-(4-(phenylamino)phenyl)-1H-indazol-6-ol]
100 to 1000 | Oc1cccc(-c2ccc(-n3ncc4c(C(F)(F)F)c(F)c(O)cc43)cc2)c1 [Compound 4, 5-Fluoro-1-(3′-hydroxy-[1,1′-biphenyl]-4-yl)-4-(trifluoromethyl)-1H-indazol-6-ol]
100 to 1000 | CS(=O)(=O)N1CCN(c2ccc(-n3ncc4c(C(F)(F)F)c(F)c(O)cc43)cc2)CC1 [Compound 4.1, 5-Fluoro-1-(4-(4-(methylsulfonyl)piperazin-1-yl)phenyl)-4-(trifluoromethyl)-1H-indazol-6-ol]
100 to 1000 | Cc1c(F)c(O)cc2c1cnn2-c1ccc(-c2cccc(O)c2)cc1 [Compound 4.2, 5-Fluoro-1-(3′-hydroxy-[1,1′-biphenyl]-4-yl)-4-methyl-1H-indazol-6-ol]
100 to 1000 | Cc1c(O)c(F)cc2cnn(-c3ccc(-c4cccc(O)c4)cc3)c12 [Compound 4.3, 5-Fluoro-1-(3′-hydroxy-[1,1′-biphenyl]-4-yl)-7-methyl-1H-indazol-6-ol]
100 to 1000 | Oc1cccc(-c2ccc(-n3ncc4c(Cl)c(F)c(O)cc43)cc2)c1 [Compound 5, 4-Chloro-5-fluoro-1-(3′-hydroxy-[1,1′-biphenyl]-4-yl)-1H-indazol-6-ol]
100 to 1000 | CS(=O)(=O)N1CCN(c2ccc(-n3ncc4c(Cl)c(F)c(O)cc43)cc2)CC1 [Compound 5.1, 4-Chloro-5-fluoro-1-(4-(4-(methylsulfonyl)piperazin-1-yl)phenyl)-1H-indazol-6-ol]

IC50 [nM] | Compound
100 to 1000 | CC1(C)CCN(c2ccc(-n3ncc4c(Cl)c(F)c(O)cc43)cc2)CC1 [Compound 5.2, 4-Chloro-1-(4-(4,4-dimethylpiperidin-1-yl)phenyl)-5-fluoro-1H-indazol-6-ol]
100 to 1000 | Oc1cccc(-c2ccc(-n3nc(F)c4cc(F)c(O)cc43)cc2)c1 [Compound 5.3, 3,5-Difluoro-1-(3′-hydroxy-[1,1′-biphenyl]-4-yl)-1H-indazol-6-ol]
100 to 1000 | Oc1cccc(-c2ccc(-n3nc(F)c4cc(F)c(O)c(F)c43)cc2)c1 [Compound 5.4, 3,5,7-Trifluoro-1-(3′-hydroxy-[1,1′-biphenyl]-4-yl)-1H-indazol-6-ol]
100 to 1000 | CS(=O)(=O)N1CCN(c2ccc(-n3nc(F)c4cc(F)c(O)c(F)c43)cc2)CC1 [Compound 6, 3,5,7-Trifluoro-1-(4-(4-(methylsulfonyl)piperazin-1-yl)phenyl)-1H-indazol-6-ol]
< 100 | CC1(C)CCN(c2ncc(-n3ncc4cc(F)c(O)c(F)c43)cn2)CC1 [Compound 6.1, 1-(2-(4,4-Dimethylpiperidin-1-yl)pyrimidin-5-yl)-5,7-difluoro-1H-indazol-6-ol]
100 to 1000 | CC1(C)CCN(c2ccc(-n3ccc4cc(F)c(O)c(F)c43)cc2)CC1 [Compound 6.2, 1-(4-(4,4-Dimethylpiperidin-1-yl)phenyl)-5,7-difluoro-1H-indol-6-ol]
100 to 1000 | CS(=O)(=O)N1CCN(c2ncc(-n3ncc4cc(F)c(O)c(F)c43)cn2)CC1 [Compound 7, 5,7-Difluoro-1-(2-(4-(methylsulfonyl)piperazin-1-yl)pyrimidin-5-yl)-1H-indazol-6-ol]
100 to 1000 | CC1(C)CCN(c2ccc(-n3ncc4c(C#N)c(F)c(O)cc43)cc2)CC1 [Compound 7.1, 1-(4-(4,4-Dimethylpiperidin-1-yl)phenyl)-5-fluoro-6-hydroxy-1H-indazole-4-carbonitrile]
100 to 1000 | CC1(C)CCN(c2ccc(N3C(=O)C(=O)c4cc(F)c(O)c(F)c43)cc2)CC1 [Compound 7.2, 1-(4-(4,4-Dimethylpiperidin-1-yl)phenyl)-5,7-difluoro-6-hydroxyindoline-2,3-dione]
100 to 1000 | CC1(C)CCN(c2ccc(-n3c(=O)sc4cc(F)c(O)c(F)c43)cc2)CC1 [Compound 7.3, 3-(4-(4,4-Dimethylpiperidin-1-yl)phenyl)-4,6-difluoro-5-hydroxybenzo[d]thiazol-2(3H)-one]
1000 to 30000 | CC1(C)CCN(c2ccc(-n3ncc4c(C(F)(F)F)c(F)c(O)nc43)cc2)CC1 [Compound 7.4, 1-(4-(4,4-Dimethylpiperidin-1-yl)phenyl)-5-fluoro-4-(trifluoromethyl)-1H-pyrazolo[3,4-b]pyridin-6-ol]
100 to 1000 | Oc1cccc(-c2ccc(-n3ncc4c(F)c(F)c(O)cc43)cc2)c1 [Compound 8, 4,5-Difluoro-1-(3′-hydroxy-[1,1′-biphenyl]-4-yl)-1H-indazol-6-ol]
< 100 | Oc1ccc(-c2ccc(-n3cnc4cc(F)c(O)cc43)cc2)cc1 [Compound 9, 5-Fluoro-1-(4′-hydroxy-[1,1′-biphenyl]-4-yl)-1H-benzo[d]imidazol-6-ol]
< 100 | Oc1ccc(-c2ccc(-n3nnc4cc(F)c(O)cc43)cc2)cc1 [Compound 10, 5-Fluoro-1-(4′-hydroxy-[1,1′-biphenyl]-4-yl)-1H-benzo[d][1,2,3]triazol-6-ol]
< 100 | CC1(C)CCN(c2ccc(-n3c(=O)[nH]c4cc(F)c(O)c(F)c43)cc2)CC1 [Compound 11, 1-(4-(4,4-Dimethylpiperidin-1-yl)phenyl)-5,7-difluoro-6-hydroxy-1H-benzo[d]imidazol-2(3H)-one]
100 to 1000 | CCn1c(=O)n(-c2ccc(N3CCC(C)(C)CC3)cc2)c2c(F)c(O)c(F)cc21 [Compound 12, 3-(4-(4,4-Dimethylpiperidin-1-yl)phenyl)-1-ethyl-4,6-difluoro-5-hydroxy-1H-benzo[d]imidazol-2(3H)-one]
< 100 | Oc1c(F)cc2cnn(-c3ccc(-c4ccc(Cl)cc4)cc3)c2c1F [Compound 13, 1-(4′-Chloro-[1,1′-biphenyl]-4-yl)-5,7-difluoro-1H-indazol-6-ol]
< 100 | Oc1ccc(-c2ccc(-n3ncc4cc(F)c(O)c(F)c43)cc2)cc1 [Compound 13.1, 5,7-Difluoro-1-(4′-hydroxy-[1,1′-biphenyl]-4-yl)-1H-indazol-6-ol]
100 to 1000 | Oc1cc2c(cnn2-c2ccc(-c3ccccc3O)cc2)cc1F [Compound 13.2, 5-Fluoro-1-(2′-hydroxy-[1,1′-biphenyl]-4-yl)-1H-indazol-6-ol]
